According to patent US20230416227A1, “PLASMA KALLIKREIN INHIBITORS” (Merck Sharp & Dohme LLC, priority 2020, published 2023):

How the values were obtained:
Human plasma kallikrein = target: T1, Human plasma kallikrein (Homo sapiens, UniProt P03952); assay: Plasma Kallikrein Assay; assay type: biochemical; settings: purified Human plasma kallikrein 0.5 nM, substrate Acetyl-K-P-R-AFC, pH 7.4
T1 construct: yields a heavy chain (371 amino acids) and a light chain (248 amino acids); purchased Enzyme Research Laboratories

human factor XIa = human factor XIa (Homo sapiens, UniProt P03951); assay: Factor XIa Assay; assay type: biochemical; settings: human factor XIa 0.04 nM, substrate GPR-AFC, 30 min pre-incubation at 25° C., pH 7.4; read-out: FXIa IC50
Sequence of human factor XIa (P03951 388-625 limits assumed): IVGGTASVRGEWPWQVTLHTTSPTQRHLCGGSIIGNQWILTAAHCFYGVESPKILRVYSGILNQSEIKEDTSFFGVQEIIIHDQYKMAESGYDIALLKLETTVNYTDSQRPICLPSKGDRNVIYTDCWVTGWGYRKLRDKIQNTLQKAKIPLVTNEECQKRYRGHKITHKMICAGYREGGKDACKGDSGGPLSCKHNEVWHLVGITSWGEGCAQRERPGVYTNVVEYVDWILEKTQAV
Sequence of human factor XIa (P03951 19-387 partner limits assumed): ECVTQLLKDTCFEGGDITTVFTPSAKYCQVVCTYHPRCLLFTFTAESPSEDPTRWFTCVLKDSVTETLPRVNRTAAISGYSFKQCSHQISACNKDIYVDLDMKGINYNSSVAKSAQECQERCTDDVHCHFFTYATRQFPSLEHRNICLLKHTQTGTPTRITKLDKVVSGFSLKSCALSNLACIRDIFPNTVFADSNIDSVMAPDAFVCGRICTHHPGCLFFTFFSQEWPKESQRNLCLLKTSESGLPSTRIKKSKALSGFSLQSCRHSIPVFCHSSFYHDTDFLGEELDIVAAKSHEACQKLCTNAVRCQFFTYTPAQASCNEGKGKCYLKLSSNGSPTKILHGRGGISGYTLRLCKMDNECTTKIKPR

T1 sequence (P03952 391-638 limits assumed): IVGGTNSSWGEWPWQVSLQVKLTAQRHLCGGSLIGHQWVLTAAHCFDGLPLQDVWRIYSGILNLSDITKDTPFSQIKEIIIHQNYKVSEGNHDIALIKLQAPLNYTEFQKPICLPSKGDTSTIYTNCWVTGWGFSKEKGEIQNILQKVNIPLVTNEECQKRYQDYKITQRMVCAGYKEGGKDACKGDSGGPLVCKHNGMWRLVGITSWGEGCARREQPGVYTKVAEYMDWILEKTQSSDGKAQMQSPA
T1 sequence (P03952 20-390 partner limits assumed): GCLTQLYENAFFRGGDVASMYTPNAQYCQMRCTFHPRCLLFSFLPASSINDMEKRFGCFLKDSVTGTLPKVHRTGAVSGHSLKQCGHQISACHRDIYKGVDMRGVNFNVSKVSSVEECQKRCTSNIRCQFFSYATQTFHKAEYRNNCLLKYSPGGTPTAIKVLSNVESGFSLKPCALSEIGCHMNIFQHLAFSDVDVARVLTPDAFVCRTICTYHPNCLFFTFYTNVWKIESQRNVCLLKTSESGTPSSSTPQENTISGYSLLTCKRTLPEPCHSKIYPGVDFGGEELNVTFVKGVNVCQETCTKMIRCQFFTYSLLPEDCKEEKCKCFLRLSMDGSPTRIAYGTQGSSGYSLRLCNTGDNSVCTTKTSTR

Structure (SMILES) | IC50 (Human plasma kallikrein) [nM] | IC50 (human factor XIa) [nM]
CC(c1cnc(N2CC[C@H]2CN2CC[C@H](O)[C@@H]2C)nc1)n1cc(NC(=O)c2cncc(-c3c(C(F)F)ccc(Cl)c3F)n2)cn1 (stereo partly drawn) [Example 161, 6-(3-Chloro-6-(difluoromethyl)-2-fluorophenyl)-N-(1-(1-(2-((S)-2-(((2S,3S)-3-hydroxy-2-methylpyrrolidin-1-yl)methyl)azetidin-1-yl)pyrimidin-5-yl)ethyl)-1H-pyrazol-4-yl)pyrazine-2-carboxamide] | 2 | 9630
C[C@@H](O)[C@H]1[C@H]2C[C@H]2CN1c1ncc(Cn2cc(NC(=O)c3cncc(-c4c(C(F)F)ccc(Cl)c4F)n3)cn2)cn1 [Example 87, 6-(3-Chloro-6-(difluoromethyl)-2-fluorophenyl)-N-(1-((2-((1S,2R,5R)-2-((R)-1-hydroxyethyl)-3-azabicyclo[3.1.0]hexan-3-yl)pyrimidin-5-yl)methyl)-1H-pyrazol-4-yl)pyrazine-2-carboxamide] | 13.6 | 8430
O=C(Nc1cnn(Cc2cnc(N3CCC3)nc2C2CC2)c1)c1cncc(-c2c(C(F)F)ccc(Cl)c2F)n1 [Example 22, N-(1-((2-(Azetidin-1-yl)-4-cyclopropylpyrimidin-5-yl)methyl)-1H-pyrazol-4-yl)-6-(3-chloro-6-(difluoromethyl)-2-fluorophenyl)pyrazine-2-carboxamide] | 22.3 | 4370
CC(c1cnc(N2CC3CC3C2)nc1)n1cc(NC(=O)c2cncc(-c3c(C(F)F)ccc(Cl)c3F)n2)cn1 (single isomer, unassigned) [Example 32, N-(1-((1R or 1S)-1-(2-(3-azabicyclo[3.1.0]hexan-3-yl)pyrimidin-5-yl)ethyl)-1H-pyrazol-4-yl)-6-(3-chloro-6-(difluoromethyl)-2-fluorophenyl)pyrazine-2-carboxamide] | 8.1 | 1520
CC(c1cnc(N2CCC2)nc1)n1cc(NC(=O)c2cncc(-c3c(OC(F)F)ccc(Cl)c3F)n2)cn1 (single isomer, unassigned) [Example 56, (R or S)-N-(1-(1-(2-(Azetidin-1-yl)pyrimidin-5-yl)ethyl)-1H-pyrazol-4-yl)-6-(3-chloro-6-(difluoromethoxy)-2-fluorophenyl)pyrazine-2-carboxamide] | 27.7 | 1490
C[C@@H](c1cnc(N2CC(C)(F)C2)nc1)n1cc(NC(=O)c2cncc(-c3c(C(F)F)ccc(Cl)c3F)n2)cn1 [Example 101, (S)-6-(3-Chloro-6-(difluoromethyl)-2-fluorophenyl)-N-(1-(1-(2-(3-fluoro-3-methylazetidin-1-yl)pyrimidin-5-yl)ethyl)-1H-pyrazol-4-yl)pyrazine-2-carboxamide] | 31.2 | 7640
O=C(Nc1cnn(Cc2cnc(N3C[C@H]4C[C@H]4[C@H]3CNCC(O)C(F)F)nc2)c1)c1cncc(-c2c(C(F)F)ccc(Cl)c2F)n1 (stereo partly drawn) [Example 150, 6-(3-Chloro-6-(difluoromethyl)-2-fluorophenyl)-N-(1-((2-((1R,2S,5S)-2-(((3,3-difluoro-2-hydroxypropyl)amino)methyl)-3-azabicyclo[3.1.0]hexan-3-yl)pyrimidin-5-yl)methyl)-1H-pyrazol-4-yl)pyrazine-2-carboxamide] | 0.6 | 650

The remaining lines, values ahead:

IC50 (Human plasma kallikrein) [nM] | IC50 (human factor XIa) [nM] | Structure (SMILES)
1.4 | 4270 | CO[C@H]1CN(C[C@@H]2CCN2c2ncc(C(C)n3cc(NC(=O)c4cncc(-c5c(C(F)F)ccc(Cl)c5F)n4)cn3)cn2)C[C@@H]1O (stereo partly drawn) [Example 165, 6-(3-Chloro-6-(difluoromethyl)-2-fluorophenyl)-N-(1-(1-(2-((S)-2-(((3S,4S)-3-hydroxy-4-methoxypyrrolidin-1-yl)methyl)azetidin-1-yl)pyrimidin-5-yl)ethyl)-1H-pyrazol-4-yl)pyrazine-2-carboxamide]
0.3 | 4730 | CN(CC1CCCN1c1ncc(Cn2cc(NC(=O)c3cncc(-c4c(C(F)F)ccc(Cl)c4F)n3)cn2)cn1)CC1(O)CC1 (single isomer, unassigned) [Example 141, (R or S)-6-(3-Chloro-6-(difluoromethyl)-2-fluorophenyl)-N-(1-((2-(2-((((1-hydroxycyclopropyl)methyl)(methyl)amino)methyl)pyrrolidin-1-yl)pyrimidin-5-yl)methyl)-1H-pyrazol-4-yl)pyrazine-2-carboxamide]
6.6 | 1350 | C[C@@H](c1cnc(N2CCC2)nc1)n1cc(NC(=O)c2cncc(-c3c(C(F)F)ccc(Cl)c3F)n2)cn1 [Example 5, (S)-N-(1-(1-(2-(Azetidin-1-yl)pyrimidin-5-yl)ethyl)-1H-pyrazol-4-yl)-6-(3-chloro-6-(difluoromethyl)-2-fluorophenvl)pyrazine-2-carboxamide]
